These results are taken from patent publication US5641762A, “Bone targeted inhibitors of carbonic anhydrase” (Research Corporation Technologies, Inc., priority 1994, dated 1997).

Series [1] can be described thus: Binding to hydroxyapatite. As to conditions: for bound to hydroxyapatite: 10^-5 M, 30 minute incubation (FIG. 1). Here is the method: A--Binding to Hydroxyapatite
For these studies, 10^-5 M aqueous solutions of the various test agents were added to a slurry of hydroxyapatite (HA), the principle mineral constituent of bone. After a 30 minute incubation, HA was separated by centrifugation and treated with 1.0M phosphate buffer (pH=7) or 2.0M phosphate buffer (pH=7). Percentage of total drug bound and eluted was determined using UV-visible spectrophotometry.
1. Binding to hydroxyapatite.

Another series deals with carbonic anhydrase. The series is described as follows: Carbonic anhydrase inhibition (modified micromethod, CO2/bicarbonate colour change time). Type of series: biochemical. The conditions noted are these: for Potency as CA inhibitor: relative to acetazolamide = 100, Table 5; for carbonic anhydrase inhibition: before hydrolysis, final assay concentration 5×10^-6 M (FIG. 2). As for the experimental part:
B--Carbonic Anhydrase Inhibition
A modification of the micromethod of Maven, J. Pharmacol. Exp. Ther. 130: 26-29 (1960) was used to assess carbonic anhydrase activity and inhibition. In essence, a bicarbonate solution was incubated at 0° C. in a vessel which was constantly bubbled with CO2. A pH indicator (phensulfophthalein) was included. The dependent variable was the amount of time required to achieve color change (addition of bicarbonate is defined as time zero). Addition of carbonic anhydase decreased reaction time. Further addition of enzyme inhibitors extended reaction time back to control values.
All are tested before and after being subjected to hydrolyric conditions with the final assay concentration being 5×10^-6 M. For these experiments, the dependent variable was the amount of time required for acidification of a CO2 /bicarbonate buffer system to a defined endpoint. […] Finally, test drugs were added to enzyme-containing reaction mixtures, and any increase in reaction time was indicative of enzyme inhibition.

The next series is described as follows: physchem. As to conditions: for chromatographic logP: reverse phase hplc lc-18-db, pH 2. Here is the method:
Chromatographic characterization was accomplished using hydroxyapetite (HA) chromatography, silica gel thin layer chromatography and high performance reverse phase liquid chromatography (HPLC) with the following characteristics:
Column: LC-18-DB (Supelco)/25 cm/5 um particles.
Mobile phase: 9% tetrahydrofuran/9% CH3 CN/1% CH3 OH/81% 5 mM sodium phosphate, pH=2
Detection: UV-visible absorbance 210-500 nm (photo-diode array scanning)
This mode of analysis served simultaneously as a qualitative analytic procedure (full UV-vis spectrum) as well as providing a quantitative estimate of drug concentration.
Chromatographic data was obtained using the HPLC system described.

The subject of series [2] is rat calvaria (PTH-stimulated calcium release). Description: In vitro bone organ culture, PTH-stimulated calcium release from calvaria. Type of series: cell-based. The conditions noted are these: for PTH-stimulated calcium release from calvaria: 10^-5 M (FIG. 3). As for the experimental part: Essentially, fetal or neonatal rat calvaria were excised and cultured in serum supplemented BGJb medium (GIBCO) containing HEPES buffer (hydroxyethylpiperazine-ethanesulfonate), penicillin and streptomycin. Bone samples were individually incubated in sterile multi-well plates at 37° C./100% relative humidity/95:5 air:CO2. If appropriate, bone may be radiolabeled by injection of mothers with ^45 CACl2 or pups with tritiated proline.
1. In vitro inhibition of bone resorption. Rat calvaria were cultured as described. Some cultures include the addition of parathyroid hormone (PTH) in the presence and absence of test compounds (10^-5 M).

Another series is described as follows: Solubility pH 7.6. The series is classed as physicochemical.
The conditions of series [3]: pH 7.6.
In series [4] the test system is PTH-induced bone resorption. The series is described as follows: In vivo Induced Secondary Hyperparathyroid Rat (ISHR). The conditions noted are these: for Blood Calcium: i.p. 24 h before nephrectomy, bled 4 h post nephrectomy, control 12.2 ± 0.4, prenephrectomy 10.1 ± 0.3, ** P ≤ 0.05, preliminary; for effect on developing hypercalcemia: given 24 hours prior to nephrectomy. As for the experimental part: 1. The Induced Secondary Hyperparathyroid Rat
In order to test the biological activity of these substances, test compounds were injected intraperitoneally into 100 gram female rats. Twenty-four hours later the animals were subjected to bilateral nephrectomy. Animals were bled 4 hours post nephrectomy. […] The resulting decline in the concentration of ionized calcium in the blood served as a stimulus for the release of PTH. In animals with functional parathyroid glands, a secondary hyperparathyroidism developed with an ensuing hypercalcemia due to PTH-induced bone resorption. Agents which inhibited bone resorption attenuate this hypercalcemic response.

For series [5] the following is noted: kidney intact animals; cited from earlier work.
The conditions of series [6]: cited from earlier work; for acidosis: systemic / metabolic acidosis.
In series [7] the test system is PTH-induced resorption of bone in culture. The conditions noted are these: cited from earlier work.
Series [8] concerns PTH-induced bone resorption. As to conditions: literature (Waite et al. 1970); cited from earlier work.
Series [9] relates to response to PTH (plasma calcium). The conditions noted are these: ISHR without parathyroids; cited from earlier work.
For series [10], the system named is PTH-stimulated calcium release from bone. The series is described as follows: In vivo classical endocrine ablation/replacement model (PTH given to parathyroidectomized rats). Also on record: species or system rat. The conditions noted are these: PTH group. As for the experimental part:
Parathyroid hormone was administered to parathyroidectomized rats who received no food for 12 hours before PTH injection, to minimize gut calcium absorption. In an attempt to attenuate the developing increase in plasma calcium, drug was administered 24 hours prior to PTH injection.
Parathyroid hormone was administered to parathyroidectomized rats who had received no food for 12 hours before PTH injection, to minimize gut calcium absorption.

In brackets after ≈: the same amount, converted by molar mass. Read-outs that look alike come from different tables or passages of the source.

`CCOC(=O)CCCCC(=O)NS(=O)(=O)c1nnc(NC(C)=O)s1` [AAOEt, acetazolamide-adipate-ethyl ester] gave a bound to hydroxyapatite in series [1] of 3%. In addition, the “carbonic anhydrase inhibition after hydrolytic conditions” value in the series on carbonic anhydrase (following incubation under hydrolytic conditions, 5×10^-6 M (FIG. 2)) is recorded as “inhibited carbonic anhydrase activity”. Besides, in the series “physchem” (HPLC), the “lipophilicity relative to parent compounds” value is on record as “more lipophilic than is its parent, acetazolamide”. In addition, the chromatographic logP in “physchem” was 0.238.
Consider `NS(=O)(=O)c1nnc(NC(=O)CCC(=O)NCCCCCC(O)(P(=O)(O)O)P(=O)(O)O)s1` [PAA], for which the Ki on carbonic anhydrase (read-out: KI as carbonic anhydrase inhibitor) stood at 0.12 µM. Also, the “water solubility relative to parent thiadiazolesulfonamide” value in the series “physchem” was “more water soluble than the parent thiadiazolesulfonamide”.
On to `CN(C)C1C(=O)C(C(N)=O)=C(O)C2(O)C(=O)C3=C(O)c4c(OC(CO)COC(=O)Oc5ccc6nc(S(N)(=O)=O)sc6c5)cccc4C(C)(O)C3CC12` (stereo not shown) [TAE-2], for which the “PTH-stimulated bone resorption / calcium release” value in series [2] (calvaria in culture (FIGS. 8-10)) was “attenuates PTH stimulated calcium release from calvaria in culture (FIG. 9) in a concentration dependent fashion”.
`Nc1nnc(S(N)(=O)=O)s1` [WP-061786, 2-amino-1,3,4-thiadiazole-5-sulfonamide]: in series [1], the “% Bound to Hydroxyapatite” value was 0%. The “Potency as CA inhibitor” value in the series with carbonic anhydrase was found to be 20%. In addition, the chromatographic logP in the series “physchem” is -0.409. Moreover, the concentration in solution in “Solubility pH 7.6” (solubility) came to 28.4 mM (≈ 5120 µg/mL). Also, the “ether:buffer partition coefficient” value in series [3] amounted to 0.15.
As to `CC(=O)Nc1nnc(S(N)(=O)=O)s1` [acetazolamide], in [1], the bound to hydroxyapatite was 19%. Besides, in the series on carbonic anhydrase, the carbonic anhydrase inhibition result is given as “inhibits carbonic anhydrase activity” and the “Potency as CA inhibitor” value was found to be 100%. In addition, in series [2], the “PTH-stimulated calcium release from calvaria” value is reported as “inhibited”. Further, the “Blood Calcium” value in series [4] (0.2 mol/kg as printed) was determined as 12.6 ± 0.2 mg/dL. Besides, in series [4], the “effect on developing hypercalcemia” value is listed as “not effective”. This molecule also yielded a solubility in the series “Solubility pH 7.6” of 6.7 mM (≈ 1490 µg/mL). The half-life entry in series [5] is given as “approximately 50 minutes”. Moreover, in series [6] (normal animals), the “change in plasma calcium concentration” value is recorded as “no change in plasma calcium concentration is observed”. Moreover, in series [6], the acidosis result is on record as “causes a systemic acidosis”. In addition, in series [6] (listed as Acetazolamide), the acidosis entry is given as “produces a metabolic acidosis”. For the same molecule, the “inhibition of PTH-induced resorption” value in [7] (tissue culture (Minkin and Jennings)) is on record as “inhibition of PTH-induced resorption”. For the same molecule, the “inhibition of the increase in total plasma calcium in ISHR” value in series [8] is recorded as “completely inhibits this response”. Also, in series [9], the “inhibition of response to administered PTH” value is “abolish it”.
On to `CN(C)C1C(=O)C(C(N)=O)=C(O)C2(O)C(=O)C3=C(O)c4c(O)cccc4C(C)(O)C3CC12` (stereo not shown) [tetracycline], for which, in series [1], the bound to hydroxyapatite came out at 90%. For the same molecule, the “% Bound to Hydroxyapatite” value in series [1] (Table 6) is given as 85%. In series [1] (result in words, sodium phosphate buffer, pH 7), the “binding to / elution from hydroxyapatite” value is given as “eluted with 1.0M sodium phosphate”. Also, the carbonic anhydrase inhibition entry with carbonic anhydrase was “without effect”. In addition, the “PTH-stimulated calcium release from calvaria” value in [2] is given as “without effect”. For the same molecule, in series [4], the “effect on developing hypercalcemia” value was “does not appear to be effective” and the “Blood Calcium” value came out at 11.8 ± 0.4 mg/dL. In addition, the “inhibition of PTH in vitro” value in series [7] (at high concentrations) was “typically inhibits PTH in vitro”.

B1: PTH: parathyroid hormone (protein, UniProt P01270 32-115, looked up)
Parathyroid hormone: SVSEIQLMHNLGKHLNSMERVEWLRKKLQDVHNFVALGAPLAPRDAGSQRPRKKEDNVLVESHEKSLGEADKADVNVLTKAKSQ
modifications: Parathyroid hormone
For the molecule B1, the “net release of calcium from cultured bone” value in [2] (treatment with PTH) was “significant stimulation”. For the same molecule, the “Blood Calcium, Before PTH” value in series [10] came out at 5.2 ± 0.3 mg/dL. In [10] (control 5.5 ± 0.2, ** p < 0.05 vs control), the “Blood Calcium, 6 hours post-treatment” value was determined as 7.2 ± 0.2 mg/dL.

By chromatographic logP is commonly meant a lipophilicity value derived from retention on a column. The term Ki denotes the equilibrium dissociation constant of an inhibitor or competing ligand from its target. Broadly, the solubility is how much of the substance goes into solution per volume.
